Here are results for two compounds from US20070293398A1, “Method for Controlling Coniferous Plants” (BASF Aktiengesellschaft, priority 2004, published 2007).

Experiment [1] relates to pine species (loblolly pine). Put plainly: Field experiment Site 2: percent brownout of pine species following May application. The note with it: Site 2, May application, 0.840 kg a.i./ha, 1 WAT. It is filed as in vivo, Pinus taeda. The procedure:
For the following experiment the phenyluracil of formula I and optionally the herbicide B were applied as an aqueous spray liquor. Phenyluracil I.1.4 (phenyluracil of formula I) was used as emulsifiable concentrate (0.120 kg a.i./L). Imazapyr (herbicide B) was used as an emulsifiable concentrate (26.7% by weight; Chopper®/BASF Corporation). Glyphosate (herbicide B) was used as a soluble concentrate (53.8% by weight; Accord® Concentrate/Dow AgroScience) Methylated seed oil (MSO) was also added to the spray liquor in amounts of 25.0% volume/volume as a standard spray adjuvant. Water was used as the carrier. Spray carrier volume was 65 L/ha.
The spray liquor had the following general recipe (based on a spray volume of 65 L/ha):
Herbicide treatments were applied in the spring using a pole sprayer with a single KLC-9 flood tip spraying from a height of 335 cm. This application technique was used to simulate operational aerial applications as closely as practical. Treatment plots were 9×18 m.
Woody vegetation was assessed at treatment and in the fall of the year of treatment and one year after treatment (one and two growing seasons after treatment). The most common woody species on the site at treatment included loblolly pine (Pinus taeda), southern red oak (Quercus falcata), water oak (Quercus nigra) and Vaccinium spp. […]

For experiment [2], the system named is wildling pine of the variety Loblolly (Pinus taeda). Put plainly: Field experiment Site 4: wildling Loblolly pine control, damage rating 0 to 100%. It is filed as in vivo. The note with it: field Site 4, combined with phenyluracil I.1.4. As to the method:
The evaluation for the damage caused by the chemical compositions was carried out using a scale from 0 to 100%, compared to the untreated control plants. Here, 0 means no damage and 100 means complete destruction of the plants.

`CC(C)C1(C)N=C(c2ncccc2C(=O)O)NC1=O` (centres unmarked) [imazapyr]: in experiment [1], the “brownout of pine species” value is listed as 2%. Regarding `COc1c(Cl)ccc(Cl)c1C(=O)O` [dicamba], in experiment [2], the “effect of addition on control of wildling pine (in words)” value is “improved the control”.
